“Also recorded” adds a separate entry of the source.

Assay [1] deals with cotton. As to the kind of experiment: Leaf transpiration experiment, cotton. Type of assay: in vivo. Particulars: 20 μM spray 25 days after sowing, two days after spraying; FIG. 6. How it is done:
ABA synthesis mutant aba2-1 was used in Arabidopsis leaf transpiration experiment. […] Therefore, this mutant is used to exclude the effect of endogenous ABA on the transpiration experiment. The plants were sprayed with a solution containing 0.05% tween-20 and corresponding concentrations of (+)-ABA/0224/0304/0706/0715/0428 or 0.05% Tween-20 and 0.05% DMSO (control) after three weeks of continuous watering with an amount of 1.2 ml/pot. Leaf transpiration experiments of soybeans were conducted at 26° C. with long-day lighting and soybeans were sprayed with a solution containing 0.1% tween-20 and 20 μM (+)-ABA/0224/0304 compound or 0.1% Tween-20 and 0.05% DMSO (control) 14 days after sowing with an amount of 4 ml/pot; the leaf transpiration experiments of cottons were sprayed with a solution containing 0.1% tween-20 and 20 μM (+)-ABA/0224 compound or 0.1% Tween-20 and 0.05% DMSO, respectively, 25 days after sowing with an amount of 4 ml/pot; the leaf transpiration experiments of wheats were sprayed with a solution containing 0.1% tween-20 and 100 μM (+)-ABA/0224 compound or 0.1% Tween-20 and 0.05% DMSO (control) 18 days after sowing with an amount of 6 ml/pot. […]
In this experiment, the temperature change of leaf surface was observed and recorded by an infrared camera, thus reflecting the strength of plant transpiration. […]

Assay [2] deals with T1, PYL1 receptor-HAB1 protein phosphatase complex (Arabidopsis thaliana, UniProt Q8VZS8).
T1 construct: made in house; host or cells: E. coli BL21 (DE3)
T1 sequence (Q8VZS8 36-211): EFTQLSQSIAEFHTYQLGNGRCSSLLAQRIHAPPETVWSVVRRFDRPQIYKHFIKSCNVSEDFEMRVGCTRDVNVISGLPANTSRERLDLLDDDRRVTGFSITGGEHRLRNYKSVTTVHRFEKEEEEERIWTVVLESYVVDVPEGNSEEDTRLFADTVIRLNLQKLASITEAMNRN
T1 sequence (Q9CAJ0 172-511 partner limits assumed): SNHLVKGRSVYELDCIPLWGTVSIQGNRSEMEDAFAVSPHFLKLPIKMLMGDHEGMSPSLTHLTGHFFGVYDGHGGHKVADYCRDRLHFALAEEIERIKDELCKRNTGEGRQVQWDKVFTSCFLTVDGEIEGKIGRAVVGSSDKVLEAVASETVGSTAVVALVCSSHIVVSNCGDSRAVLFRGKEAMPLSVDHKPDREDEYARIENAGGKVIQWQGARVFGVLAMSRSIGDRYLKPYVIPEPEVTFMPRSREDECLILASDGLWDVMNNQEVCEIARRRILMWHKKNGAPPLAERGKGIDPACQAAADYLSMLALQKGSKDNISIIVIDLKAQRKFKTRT
Description: AlphaScreen assay, PYL1 receptor binding to HAB1. Format: biochemical. Particulars: fraction of the EC50 of ABA; FIG. 2b. The protocol:
(§1) The AlphaScreen kit (available from Perkin Elmer) was used, and the method was as follows: a 10× buffer (50 mM MOPS, pH 7.4, 50 mM NaF, 50 mM CHAPS, 0.1 mg/ml bovine serum albumin) diluted at 1:10, each of 100 nM HAB1 with Biotin tag sequence and PYR1/PYL1/PYL2/PYL7/GmPYL6/OsPYL2 protein with dual tags of 6×His and SUMO sequences, corresponding concentrations of (+)-ABA/0224/0304/0706/0708/0713/0715/0428/NC0F4, and 5 μg/ml donor beads and acceptor beads (available from Perkin Elmer) were contained in 150 μl of experimental system. After incubating for 1.5 hours at room temperature in the dark, it was placed into an Envision Plate Reader (available from Perkin Elmer) under the programmed AlphaScreen procedure for readings.
(§2) AlphaScreen technology was used to test the ability of the compounds of the present invention to promote PYL receptor binding to PP2C protein phosphatase (HAB1).

Assay [3] concerns cotton. As to the kind of experiment: Soil drought experiment, cotton. Particulars: 20 μM sprayed once every 3 days; re-watering after 6 days of drought; FIG. 9. Type of assay: in vivo. The protocol:
Soybean, cotton and wheat for leaf transpiration experiments were used simultaneously for soil drought experiments, each pot was filled with the same weight of soil to reduce experimental error. All the soybean plants were subjected to a long-day culture at 26° C. 14 days after sowing, watering was stopped and the plants with the consistent growth condition were selected for drought treatment. At the start of the drought, a solution containing 0.1% Tween-20 and 20 μM (+)-ABA/0224/0304 or 0.1% Tween-20 and 0.05% DMSO (control) was sprayed onto the leaf surface once with a spray amount of 4 ml solution/pot. Meanwhile, the position of the pot was changed and re-watered 6 days after the drought, and the photos were taken 1 day after re-watering. The drought experiment of cotton was similar to that of soybeans, watering was stopped 25 days after sowing, the plants with the consistent growth condition were selected for drought treatment. At the start of the drought, a solution containing 0.1% Tween-20 and 20 μM (+)-ABA/0224 or 0.1% Tween-20 and 0.05% DMSO (control) was sprayed onto the leaf surface once with a spray amount of 4 ml solution/pot, and then sprayed once every 3 days. Meanwhile, the position of the pot was changed and re-watered 6 days after the drought, and the photos were taken before re-watering and 1 day after re-watering. […]

Assay [4] concerns the target T2, PYL7 receptor-HAB1 protein phosphatase complex (Arabidopsis thaliana, UniProt Q1ECF1).
T2 construct: made in house; host or cells: E. coli BL21 (DE3)
T2 sequence (Q1ECF1 1-211): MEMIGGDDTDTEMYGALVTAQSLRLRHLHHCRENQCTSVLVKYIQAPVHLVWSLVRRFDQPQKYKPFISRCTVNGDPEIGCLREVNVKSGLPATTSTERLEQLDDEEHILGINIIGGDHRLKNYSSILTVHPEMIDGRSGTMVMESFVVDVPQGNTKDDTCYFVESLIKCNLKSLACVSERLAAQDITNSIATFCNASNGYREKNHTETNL
T2 sequence (Q9CAJ0 172-511 partner limits assumed): T1 sequence (Q9CAJ0 172-511 partner limits assumed)
Description: AlphaScreen assay, PYL7 receptor binding to HAB1. Format: biochemical. On the set-up: unit not given beside the values. Particulars: fraction of the EC50 of ABA; FIG. 2d. The protocol: as §1, §2

Regarding `CC1=CC(=O)CC(C)(C)[C@@]1(O)/C=C/C(C)=C\C(=O)O` [ABA, Abscisic Acid, reference compound], the “leaf temperature versus DMSO control (leaf transpiration)” value in the assay on cotton [1] was “had no difference from that in the control group”.
As for `CCCN1C(=O)OC(C)c2cc(NS(=O)(=O)Cc3c(F)c(F)c(C)c(F)c3F)ccc21` (stereo not shown) [Compound 0224], the “EC50 value with PYL1 receptor-HAB1 complex as fraction of that of ABA” value in assay [2] was “⅛”. The “leaf temperature versus DMSO control (leaf transpiration)” value with cotton [1] is “significantly reduce the transpiration rate of the cotton leaf; also recorded: still significant higher than that of plants in DMSO-sprayed control group”. Further, the “growth after drought and re-watering” value in the assay on cotton [3] was “significantly better than that of the control group (DMSO) or that of the cotton treated with the same concentration of ABA; also recorded: significantly better growth after re-watering than that in the DMSO-sprayed control group and the plants sprayed with the same concentration of ABA”. Further, the “EC50 value with PYL7 receptor-HAB1 complex as fraction of that of ABA” value in assay [4] is 1/10.
For `CCCN1C(=O)OC(C)(C)c2cc(NS(=O)(=O)Cc3c(F)c(F)c(C)c(F)c3F)ccc21` [Compound 0304], the “EC50 value with PYL1 receptor-HAB1 complex as fraction of that of ABA” value in assay [2] is on record as 1/7. Moreover, in assay [4], the “EC50 value with PYL7 receptor-HAB1 complex as fraction of that of ABA” value is listed as 1/10.

(Values after patent US11076597B2, “High stress resistant plant growth regulator and preparation method and use thereof” (SHANGHAI INSTITUTES FOR BIOLOGICAL SCIENCES, CHINESE …, priority 2015, dated 2021).)
